Source: paper PMC4257840 (Journal of Medicinal Chemistry, 2014)
Where two headings read alike, the source gives them in different places.

Columns and labels:
Der p 1 = molecular target: T1, Der p 1 (Dermatophagoides pteronyssinus, UniProt P08176); assay: biochemical; assay type: biochemical
T1 sequence (P08176 99-320): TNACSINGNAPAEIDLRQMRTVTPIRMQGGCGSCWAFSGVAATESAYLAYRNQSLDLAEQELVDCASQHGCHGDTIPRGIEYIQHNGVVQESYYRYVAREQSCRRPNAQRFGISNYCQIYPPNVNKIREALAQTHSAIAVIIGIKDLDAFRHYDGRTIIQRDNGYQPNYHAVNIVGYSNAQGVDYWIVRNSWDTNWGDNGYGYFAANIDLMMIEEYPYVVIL
Protocol: Automated screening of inhibitory activity toward group 1 HDM peptidase allergens was performed as described elsewhere[25],[43] with the minor modification that Der p 1 or Der f 1 were incubated with inhibitors for 20 min prior to initiation of reactions by addition of substrate. In initial screening, the activity of each compound was measured using a series of 10 doubling dilutions from a starting concentration of 50 μM. […] Assays were performed in triplicate for calculation of mean ± SE IC50 values.

human liver Cat B = human liver Cat B (Homo sapiens, UniProt P07858); assay: Cathepsin B inhibition assay; conditions: for IC50: read-out: Cat B IC50, mean ± SE
Protocol: Inhibition of Cat B was measured as described with modifications.[25] […] Progress curves were followed at 30 °C by detection of fluorescence at 320/420 nm (excitation/emission).
In all cases, for reactions involving inhibitors, the amount of reaction buffer was adjusted to 60 μL, the inhibitor added as a 10 μL aliquot, and incubated for 20 min with the enzyme prior to reaction start.

[1] = Measurement of LogD7.4 (n-octanol/PBS shake); assay type: physicochemical; conditions: single determination, n-octanol/PBS pH 7.4; read-out: Log D7.4
Protocol: Appendix 4. Measurement of LogD7.4
Test compounds (~1 mg) were weighed into 2 mL HPLC vials. n- Octanol (0.7 mL), pre-saturated with 10 mM phosphate buffered saline pH7.4 (PBS), was added to each vial followed b y PBS (0. 7 mL), which had been pre-saturat ed with n-octanol. The mixtures were shaken for 90 min and then centrifuged for 10 min at 4,000 rpm. The upper organic l ayer (0.2 m L) and the aqueous la yer (0.5 mL) were removed from each vial and anal yz e d b y LC -MS. Mass spect ral anal ysis was used to confirm peak identity whilst the concentration of compound was assessed by a diode arra y det ecto r. The logD for each compound was calculated b y takin g th e lo g of its concentration ratio between the oct anol and aqueous la ye r s.Given the robustness of the assa y and the fact that the info rmation was us ed onl y for gen eral guid ance, thes e measu rements were based on singlicate det erminations.

[2] = test system: nonsensitized rats challenged with a natural mixture of HDM allergens; conditions: i.t. aerosol typically 60-360 min prior to allergen challenge, unsensitised BN rats

Row | SMILES | IC50 (Der p 1) | IC50 (human liver Cat B) | IC50 (Der p 1; mean ± SE) | logD at 1.5 h [1] | duration of protection: trend of inhibition of eosinophil recruitment with increasing pre-treatment interval [2] | inhibition of Cat B (human liver Cat B; at 2.5 μM)
1 | Cc1n[nH]c(C)c1C(=O)N[C@H](C(=O)N[C@@H](C)C(=O)NC(C(=O)C(=O)NCc1ccccc1)C(C)C)C(C)(C)C (mixture of isomers) [Compound 30] | 0.067 ± 0.01 µM |  |  |  |  | 
2 | CC(C)C(NC(=O)[C@H](C)NC(=O)[C@H](Cc1ccccc1)NC(=O)c1ccccc1)C(=O)C(=O)NC1CCOCC1 (mixture of isomers) [Compound 33] |  | 0.311 ± 0.006 µM | 0.055 ± 0.004 µM |  |  | 
3 | CCCC[C@H](NC(=O)[C@H](C)NC(=O)[C@H](Cc1ccccc1)NC(=O)c1ccccc1)C(=O)CN1CCCC1 [Compound 3] |  |  | 0.065 µM |  |  | 
4 | CCCC[C@H](NC(=O)[C@H](C)NC(=O)[C@H](Cc1ccccc1)NC(=O)c1ccccc1)C(=O)C(=O)N1CCCC1 [Compound 4] |  |  | 0.997 µM |  |  | 
5 | CC(C)[C@H](NC(=O)[C@H](C)NC(=O)[C@H](Cc1ccccc1)NC(=O)c1ccccc1)C(=O)C(=O)NCc1ccccc1 [Compound 20] |  | 0.05 ± 0.005 µM | 0.012 ± 0.002 µM |  |  | 
6 | C[C@H](NC(=O)[C@H](Cc1ccccc1)NC(=O)c1ccccc1)C(=O)N[C@H](C(=O)C(=O)NC1CCCCC1)C(C)(C)C [Compound 21] |  |  | 9.17 ± 0.88 µM |  |  | 
7 | CC(C)[C@H](NC(=O)[C@H](C)NC(=O)[C@@H](NC(=O)c1ccccc1)C(C)(C)c1ccccc1)C(=O)C(=O)NCc1ccccc1 [Compound 23] |  | 0.446 ± 0.011 µM | 0.042 ± 0.006 µM |  |  | 
8 | CCC[C@H](NC(=O)[C@H](Cc1ccccc1)NC(=O)c1ccccc1)C(=O)N[C@H](C(=O)C(=O)NC1CCCCC1)C(C)C [Compound 24] |  | 0.067 ± 0.001 µM | 0.164 ± 0.024 µM |  |  | 
9 | CC(C)[C@H](NC(=O)[C@H](C)NC(=O)[C@@H](NC(=O)c1cccc2ccccc12)C(C)(C)C)C(=O)C(=O)NC1CCCCC1 [Compound 25] |  | 0.721 ± 0.035 µM | 0.02 ± 0.003 µM | 4.3 |  | 
10 | CC(C)[C@H](NC(=O)[C@H](C)NC(=O)[C@@H](NC(=O)c1ccnc2ccccc12)C(C)(C)C)C(=O)C(=O)NC1CCCCC1 [Compound 26] |  | 0.628 ± 0.047 µM | 0.013 ± 0.002 µM | 3.5 |  | 
11 | CC(C)[C@H](NC(=O)[C@H](C)NC(=O)[C@@H](NC(=O)c1ccnc2ccccc12)C(C)(C)C)C(=O)C(=O)NCc1ccccc1 [Compound 27, Quinoline-4-carboxylic Acid {(S)-1-[(S)-1-((S)-1-Benzylaminooxalyl-2-methyl-propylcarbamoyl)-ethylcarbamoyl]-2,2-dimethyl-propyl}-amide] |  | 3.4 ± 0.187 µM | 0.018 ± 0.001 µM | 3.4 | rise to a peak | 
12 | CC(C)[C@H](NC(=O)[C@H](C)NC(=O)[C@@H](NC(=O)c1ccncc1)C(C)(C)C)C(=O)C(=O)NC1CCCCC1 [Compound 29, N-{(S)-1-[(S)-1-((S)-1-Cyclohexylaminooxalyl-2-methyl-propylcarbamoyl)-ethylcarbamoyl]-2,2-dimethyl-propyl}-isonicotinamide] |  | 0.231 ± 0.017 µM | 0.013 ± 0.001 µM | 2.8 | rise to a peak | 
13 | CC(C)[C@H](NC(=O)[C@H](C)NC(=O)[C@@H](NC(=O)C1CCN(C)CC1)C(C)(C)C)C(=O)C(=O)NCc1ccccc1 [Compound 31] |  | 0.283 ± 0.05 µM | 0.019 ± 0.002 µM |  |  | 
14 | CC(C)[C@H](NC(=O)[C@H](C)NC(=O)[C@H](Cc1ccccc1)NC(=O)c1ccccc1)C(=O)C(=O)NC1CCN(C)CC1 [Compound 34] |  |  | 0.115 ± 0.014 µM |  |  | 
15 | CC(C)[C@H](NC(=O)[C@H](C)NC(=O)[C@@H](NC(=O)c1ccccc1)C(C)(C)C)C(=O)C(N)=O [Compound 36] | 0.006 ± 0.002 µM | 0.02 ± 0.003 µM |  | 1.7 |  | 
16 | CNC(=O)C(=O)[C@@H](NC(=O)[C@H](C)NC(=O)[C@@H](NC(=O)c1ccccc1)C(C)(C)C)C(C)C [Compound 37] |  | 0.494 ± 0.02 µM | 0.024 ± 0.005 µM |  |  | 
17 | CC(C)[C@H](NC(=O)[C@H](C)NC(=O)[C@@H](NC(=O)c1ccccc1)C(C)(C)C)C(=O)C(=O)NCc1ccc(S(N)(=O)=O)cc1 [Compound 39] |  | 0.984 ± 0.164 µM | 0.006 ± 0.001 µM |  |  | 
18 | CC(C)[C@H](NC(=O)[C@H](C)NC(=O)[C@@H](NC(=O)c1ccccc1)C(C)(C)C)C(=O)C(=O)NCc1ccc(C(F)(F)F)cc1 [Compound 40] |  |  | 0.047 ± 0.007 µM |  |  | 

Row | SMILES | IC50 (Der p 1) | IC50 (human liver Cat B) | IC50 (Der p 1; mean ± SE) | logD at 1.5 h [1] | duration of protection: trend of inhibition of eosinophil recruitment with increasing pre-treatment interval [2] | inhibition of Cat B (human liver Cat B; at 2.5 μM)
19 | CC(C)[C@H](NC(=O)[C@H](C)NC(=O)[C@@H](NC(=O)c1ccccc1)C(C)(C)C)C(=O)C(=O)NCc1ccc(CN(C)C)cc1 [Compound 41] |  | 0.242 ± 0.031 µM | 0.008 ± 0.001 µM |  |  | 
20 | CC(C)[C@H](NC(=O)[C@H](C)NC(=O)[C@@H](NC(=O)c1ccccc1)C(C)(C)C)C(=O)C(=O)N[C@H](C)c1ccccc1 [Compound 42] |  | 0.459 ± 0.028 µM | 0.017 ± 0.002 µM |  |  | 
21 | CC(C)[C@H](NC(=O)[C@H](C)NC(=O)[C@@H](NC(=O)c1ccccc1)C(C)(C)C)C(=O)C(=O)N[C@@H](C)c1ccccc1 [Compound 43] |  |  | 0.117 ± 0.034 µM |  |  | 
22 | CC(C)[C@H](NC(=O)[C@H](C)NC(=O)[C@@H](NC(=O)c1ccccc1)C(C)(C)C)C(=O)C(=O)NCc1cn[nH]c1 [Compound 44] | 0.011 ± 0.002 µM | 0.367 ± 0.034 µM |  |  |  | 
23 | CC(C)[C@H](NC(=O)[C@H](C)NC(=O)[C@H](Cc1ccccc1)NC(=O)c1ccccc1)C(=O)C(=O)NCC(=O)N1CCN(C)CC1 [Compound 45, N-[(S)-1-((S)-1-{(S)-2-Methyl-1-[2-(4-methyl-piperazin-1-yl)-2-oxo-ethylaminooxalyl]-propylcarbamoyl}-ethylcarbamoyl)-2-phenyl-ethyl]-benzamide] |  | 0.544 ± 0.04 µM | 0.014 ± 0.001 µM | 1.3 | waned | 
24 | CC(C)[C@H](NC(=O)[C@H](C)NC(=O)[C@H](Cc1ccccc1)NC(=O)c1ccccc1)C(=O)C(=O)NCC(=O)N1CCCCC1 [Compound 46] | 0.014 ± 0.003 µM | 0.081 ± 0.006 µM |  | 2.6 |  | 
25 | CC(C)[C@H](NC(=O)[C@H](C)NC(=O)[C@H](Cc1ccccc1)NC(=O)c1ccccc1)C(=O)C(=O)NCC(=O)N1CCOCC1 [Compound 47, N-((S)-1-{(S)-1-[(S)-2-Methyl-1-(2-morpholin-4-yl-2-oxo-ethylaminooxalyl)-propylcarbamoyl]-ethylcarbamoyl}-2-phenyl-ethyl)-benzamide] |  | 0.088 ± 0.01 µM | 0.009 ± 0.001 µM | 1.7 | rise to a peak | 
26 | CC(C)[C@H](NC(=O)[C@H](C)NC(=O)[C@@H](NC(=O)c1ccccc1)C(C)(C)C)C(=O)C(=O)NCC(=O)N1CCN(C)CC1 [Compound 48] |  | > 2.5 µM | 0.014 ± 0.002 µM | 1 |  | no significant inhibition
27 | CC(C)[C@H](NC(=O)[C@H](C)NC(=O)[C@H](Cc1ccccc1)NC(=O)c1ccccc1)C(=O)C(=O)NCC(=O)N1CCN(C(C)C)CC1 [Compound 49] |  | > 2.5 µM | 0.004 ± 0.001 µM | 1.6 |  | 
28 | CC(C)[C@H](NC(=O)[C@H](C)NC(=O)[C@H](Cc1ccccc1)NC(=O)c1ccccc1)C(=O)C(=O)N[C@@H](C)C(=O)N1CCN(C)CC1 [Compound 50] |  | > 2.5 µM | 0.01 ± 0.001 µM |  |  | 
29 | CC(C)[C@H](NC(=O)[C@H](C)NC(=O)[C@@H](NC(=O)c1ccccc1)C(C)(C)C)C(=O)C(=O)NCC(=O)N1CCc2ccccc2C1 [Compound 51] | 0.006 µM | 0.511 ± 0.088 µM |  | 3.5 |  | 
30 | CC(C)[C@H](NC(=O)[C@H](C)NC(=O)[C@@H](NC(=O)c1ccccc1)C12CC3CC(CC(C3)C1)C2)C(=O)C(=O)NCC(=O)N1CCN(C)CC1 [Compound 54] |  | > 2.5 µM | 0.005 µM |  | waned | 
31 | CC(C)[C@H](NC(=O)[C@H](C)NC(=O)[C@@H](NC(=O)c1ccnc2ccccc12)C(C)(C)C)C(=O)C(=O)NCC(=O)N1CCN(C(C)C)CC1 [Compound 55] |  | > 2.5 µM | 0.003 µM |  |  | 
32 | CC(C)[C@H](NC(=O)[C@H](C)NC(=O)[C@@H](N1Cc2ccccc2C1=O)C(C)(C)C)C(=O)C(=O)NCc1ccc(S(N)(=O)=O)cc1 [Compound 56] |  | 3.05 ± 1.13 µM | 0.003 µM |  |  | 
33 | CNC(=O)c1ccc(CNC(=O)C(=O)[C@@H](NC(=O)[C@H](C)NC(=O)[C@@H](N2Cc3ccccc3C2=O)C(C)(C)C)C(C)C)cc1 [Compound 57] |  | 3.57 ± 0.85 µM | 0.004 µM |  | rise to a peak | 
34 | CC(C)[C@H](NC(=O)[C@H](C)NC(=O)[C@@H](N1Cc2ccccc2C1=O)C(C)(C)C)C(=O)C(=O)NCc1ccc(CN(C)C)cc1 [Compound 58] |  | 2.85 ± 0.662 µM | 0.004 µM |  |  | 
35 | CC(C)[C@H](NC(=O)[C@H](C)NC(=O)[C@@H](NC(=O)c1cccc2ccccc12)C(C)(C)C)C(=O)C(=O)NCc1ccc(S(N)(=O)=O)cc1 [Compound 59] |  | 0.532 ± 0.136 µM | 0.004 µM |  |  | 
